Test systems include SF-295 CNS; OVCAR-3 ovarian; EKVX NSCLC; A549 NSCLC; UACC-257 melanoma; HOP-92 NSCLC; NCI-H226 lung; OVCAR-5 ovarian; SF-539 CNS.
Assay in all cases: NCI anticancer screen, dose series, 48 h

SMILES strings stand for the structures.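 All cell lines were grown in 96-well plates and treated with compound for 48 hours. The concentration for 50% growth inhibition is given as GI50. TGI is the concentration that stops growth completely.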

Here are results for 15 compounds from PubChem BioAssay (NCI).

As for `CCCCCCCCCCCC(=O)OCCOCCOCCOCCOCCOCc1ccc(OC)cc1`, the TGI with SF-295 CNS, with OVCAR-3 ovarian, with EKVX NSCLC, with A549 NSCLC, in the experiment on UACC-257 melanoma and in the experiment on HOP-92 NSCLC was greater than 100 µM each time. Further, the TGI in the experiment on NCI-H226 lung and in the experiment on OVCAR-5 ovarian was greater than 100 µM throughout.

Turning to `CCOC(=O)C1Oc2ccc([N+](=O)[O-])c3c2C1(O)CCC3` (stereo not given), the TGI in the experiment on SF-295 CNS, with OVCAR-3 ovarian, in the experiment with EKVX NSCLC, in the experiment with A549 NSCLC, in the experiment with UACC-257 melanoma and with SF-539 CNS was greater than 100 µM in each case. In addition, the TGI in the experiment on HOP-92 NSCLC, with NCI-H226 lung and in the experiment with OVCAR-5 ovarian was greater than 100 µM throughout.

Consider `N#CC(C(=O)CCC(=O)Nc1cccc(Cl)c1)c1ccccc1` (stereo not given), for which the TGI with SF-295 CNS, in the experiment with OVCAR-3 ovarian, in the experiment with EKVX NSCLC, in the experiment with A549 NSCLC, in the experiment on UACC-257 melanoma and in the experiment with SF-539 CNS was greater than 100 µM in each case. For the same compound, the TGI in the experiment with HOP-92 NSCLC, with NCI-H226 lung and with OVCAR-5 ovarian was greater than 100 µM in each case.

With `CCCCCCc1cc(C(=O)Nc2cccc(C(F)(F)F)c2)nc(N)n1`, the TGI in the experiment with SF-295 CNS, in the experiment on OVCAR-3 ovarian, with EKVX NSCLC, with A549 NSCLC, with UACC-257 melanoma and in the experiment on SF-539 CNS was greater than 100 µM throughout. Also, the TGI with HOP-92 NSCLC, with NCI-H226 lung and in the experiment on OVCAR-5 ovarian was greater than 100 µM each time.

In the case of `CSCC1CC(c2ccc(Cl)cc2)=NO1` (stereo not given), the TGI with SF-295 CNS, in the experiment with OVCAR-3 ovarian, in the experiment with EKVX NSCLC, in the experiment on A549 NSCLC, in the experiment on UACC-257 melanoma and with SF-539 CNS was greater than 100 µM each time. In addition, the TGI with HOP-92 NSCLC, with NCI-H226 lung and in the experiment with OVCAR-5 ovarian was greater than 100 µM in each case.

For the compound `C[Si](C)(C)OC1(C#N)C2C3CC4C2C(=O)C2C4C3C21` (stereo not given), the TGI with OVCAR-3 ovarian, in the experiment with A549 NSCLC, in the experiment with UACC-257 melanoma, in the experiment on SF-539 CNS and in the experiment with NCI-H226 lung was greater than 100 µM throughout.

Take `CCN(C(=O)N1CCN(c2cc3c(cc2F)c(=O)c(C(=O)O)cn3C2CC2)CC1)c1nc(-c2ccc(C)cc2)cs1`: the GI50 in the experiment on SF-295 CNS was 0.306 µM; in the experiment on OVCAR-3 ovarian, 0.368 µM; in the experiment with EKVX NSCLC, 1.52 µM; in the experiment with A549 NSCLC it was 0.42 µM; in the experiment with SF-539 CNS, 0.356 µM; with HOP-92 NSCLC it was 0.708 µM. Besides, the GI50 in the experiment on OVCAR-5 ovarian was 0.68 µM. For the same compound, the TGI in the experiment with SF-295 CNS was 3.76 µM; in the experiment with OVCAR-3 ovarian, 2.47 µM; in the experiment on EKVX NSCLC it was greater than 100 µM; with A549 NSCLC, greater than 100 µM; with SF-539 CNS, 2.65 µM; in the experiment with HOP-92 NSCLC it was 2.8 µM. In addition, the TGI with OVCAR-5 ovarian is greater than 100 µM.

As for `CCC1CN2CCc3cc(OC)c(OC)cc3C2CC1CC1c2cc(OC)c(OC)cc2CCN1C(=O)C1CCCN1C(=O)OCc1ccccc1` (stereo not given), the TGI in the experiment with SF-295 CNS amounted to 30.4 µM; in the experiment on OVCAR-3 ovarian, 30.7 µM; in the experiment on EKVX NSCLC, 43.3 µM; with A549 NSCLC, 39.2 µM; in the experiment on UACC-257 melanoma, 30.8 µM; in the experiment on SF-539 CNS it was 33 µM. Moreover, the TGI was determined as 22 µM with HOP-92 NSCLC, 30.9 µM in the experiment on NCI-H226 lung and 34.2 µM in the experiment on OVCAR-5 ovarian.

In the case of `c1ccc(SC(CCCCC(Sc2ccccc2)Sc2ccccc2)Sc2ccccc2)cc1`, the TGI in the experiment on SF-295 CNS, in the experiment on OVCAR-3 ovarian, in the experiment on EKVX NSCLC, in the experiment on A549 NSCLC, in the experiment on UACC-257 melanoma and in the experiment on SF-539 CNS was greater than 100 µM each time. The TGI in the experiment on HOP-92 NSCLC is greater than 100 µM.

Turning to `O=C1C(=O)N(c2ccc(Cl)c(Cl)c2)C(=O)C(=O)C1c1nc2ccccc2s1`, the TGI in the experiment on SF-295 CNS, in the experiment with OVCAR-3 ovarian, in the experiment with EKVX NSCLC, in the experiment on A549 NSCLC, in the experiment with UACC-257 melanoma and in the experiment with SF-539 CNS was greater than 100 µM throughout. Besides, the TGI in the experiment on HOP-92 NSCLC, with NCI-H226 lung and in the experiment on OVCAR-5 ovarian was greater than 100 µM in each case.

In the case of `Cc1cc(N(CCC#N)CCC#N)ccc1/C=C/C(=O)Nc1cccc(Cl)c1`, the TGI with SF-295 CNS, with OVCAR-3 ovarian, in the experiment on EKVX NSCLC, with A549 NSCLC, with UACC-257 melanoma and in the experiment with SF-539 CNS was greater than 100 µM throughout. Moreover, the TGI in the experiment with HOP-92 NSCLC, in the experiment with NCI-H226 lung and in the experiment on OVCAR-5 ovarian was greater than 100 µM each time.

For the compound `C=C1COC(/C=C(\C)CC/C=C(\C)CCl)C1` (stereo not given), the TGI in the experiment on SF-295 CNS, with OVCAR-3 ovarian, with EKVX NSCLC, with A549 NSCLC, with SF-539 CNS and in the experiment on HOP-92 NSCLC was greater than 100 µM in each case. The TGI with NCI-H226 lung and in the experiment with OVCAR-5 ovarian was greater than 100 µM in each case.

Consider `C=CCc1cc(OC)c2c(c1)C(O)CC(c1ccccc1)O2` (stereo not given), for which the TGI in the experiment with SF-295 CNS, with OVCAR-3 ovarian, in the experiment with EKVX NSCLC, in the experiment on A549 NSCLC, in the experiment on UACC-257 melanoma and in the experiment on SF-539 CNS was greater than 100 µM in each case. For the same compound, the TGI with HOP-92 NSCLC, with NCI-H226 lung and with OVCAR-5 ovarian was greater than 100 µM throughout.

With `COc1ccc(N=c2ssc3c(=S)ssc23)cc1`, the TGI is greater than 100 µM in the experiment on SF-295 CNS; 61.7 µM in the experiment with OVCAR-3 ovarian; greater than 100 µM in the experiment with A549 NSCLC; 96.2 µM with SF-539 CNS; 70.3 µM in the experiment with HOP-92 NSCLC; greater than 100 µM in the experiment on NCI-H226 lung. The TGI in the experiment on OVCAR-5 ovarian was greater than 100 µM.

Take `Cn1cnc2nc(Cl)nc(NC(C)(C)C(C)(C)O)c21`: the TGI in the experiment on SF-295 CNS, in the experiment on OVCAR-3 ovarian, in the experiment on EKVX NSCLC, in the experiment on A549 NSCLC, with UACC-257 melanoma and in the experiment with SF-539 CNS was greater than 100 µM throughout. Besides, the TGI in the experiment on HOP-92 NSCLC, in the experiment with NCI-H226 lung and in the experiment on OVCAR-5 ovarian was greater than 100 µM each time.
